{"source": "paper PMC7993274", "about": "(Clinical and Translational Science, 2020)", "origin": "cited, not measured here", "key": {"[1]": {"conditions": "patients with rheumatoid arthritis (N = 3,492); cited from earlier work"}, "[2]": {"conditions": "levels peaking 2 weeks post‐treatment; cited from earlier work"}}, "data": [{"smiles": "CCS(=O)(=O)N1CC(CC#N)(n2cc(-c3ncnc4[nH]ccc34)cn2)C1", "note": "[baricitinib]", "values": [{"measurement": "venous thromboembolism incidence rate", "setting": "[1]", "value": 0.5, "unit": "per 100 patient‐years"}, {"measurement": "effect on platelet counts", "setting": "[2]", "value": "transiently increase platelet counts"}]}]}
